Assay results from US20260115180A1, “TREATMENT OF HYPOTHALAMIC OBESITY” (Saniona A/S, priority 2020, published 2026).

Legend:
[1] = Phase 2 double-blind, randomized, placebo-controlled trial of Tesomet in hypothalamic obesity, Part 1 (24 weeks); assay type: in vivo, human; conditions: after 24 weeks of treatment (FIG. 3a)
Excerpt: The overall safety and tolerability of co-administration of tesofensine and metoprolol (Tesomet) in subjects with hypothalamic injury-induced obesity (HIO) was studied in a phase 2, double-blind, randomized, placebo-controlled, single-center safety and efficacy study followed by with an open-label extension, in total 48 weeks: • Part 1:24 Weeks double blinded treatment followed by • Part 2:24 weeks open lable extension.
The studied population were subjects suffering from obesity developed in relation to damage to the hypothalamus (HO), whether it is from an injuring trauma, bleeding, infaction, tumor, surgery or irradiation. […]
This randomized, double-blind, placebo-controlled Phase 2 trial evaluated Tesomet (tesofensine 0.5 mg+metoprolol 50 mg) administered daily in patients with HO, conducted at Rigshospitalet in Copenhagen, Denmark.
The primary endpoint of the study was overall safety and tolerability measured by all safety data collected during the study including recorded adverse events, laboratory data, blood pressure, and heart rate. […]
Continuous efficacy secondary endpoints were compared between treatment arms by means using Analysis of Co-variance (ANCOVA) including treatment as fixed factor and baseline value as covariate. Estimates and 95% confidence intervals of treatment differences were calculated

[2] = Open-label extension of the Phase 2 study TM005 (additional 24 weeks, 48 weeks in total); assay type: in vivo, human
Experimental: All subjects: co-administration of 0.5 mg tesofensine/50 mg metoprolol ER daily for 24 weeks. One tablet for each product.
TM005 was a 24-week phase 2, double-blind, randomized, placebo-controlled, single-centre, safety and efficacy study followed by a 24-week open-label extension treatment period designed to evaluate overall safety and tolerability of Tesomet (co-administration of 0.5 mg tesofensine and 50 mg metoprolol) in patients with hypothalamic obesity (HO).
The primary endpoint of the study was overall safety and tolerability measured by all safety data collected during the study including recorded adverse events, laboratory data, blood pressure, and heart rate. The secondary efficacy endpoints included bodyweight, waist circumference, glycemic control and other measures. In the double-blind (DB) period of the study, patients received either Tesomet or matching placebo (2:1 randomization) for 24 weeks.
A total of 21 patients (13 Tesomet, 8 placebo) were randomized into the double blind (DB) period. All patients who completed the DB period of the study were provided the opportunity to receive Tesomet in an open-label extension (OLE) period of the study for an additional 24 weeks. All 18 patients who completed the DB period chose to participate in the OLE period and all of these patients completed the OLE period. […]

[3] = rat model of diet-induced obesity; cited from earlier work
[4] = cited from earlier work
[5] = in vivo; cited from earlier work

Structure (SMILES) | Share of patients with at least 5% weight loss [1] | Share of patients with at least 10% weight loss ([2]; FIG. 3b) | Body weight after 48 weeks of Tesomet ([2]; baseline to Week 48, 24 weeks double-blind + 24 weeks open-label (FIG. 5)) | Body weight in DIO rats [3] | Nocturnal energy expenditure ([4]; human subjects) | Weight loss in obese patients, corrected for placebo and diet effects ([4]; long-term treatment) | Half-life of beta blockers [5]
CCOC[C@@H]1[C@@H](c2ccc(Cl)c(Cl)c2)C[C@@H]2CC[C@H]1N2C [Tesofensine, (1R,2R,3S,5S)-3-(3,4-dichlorophenyl)-2-(ethoxymethyl)-8-methyl-8-azabicyclo[3.2.1]octane] | approximately ⅔ | 33-41% | maintained | robust and sustained weight loss | increase nocturnal energy expenditure | about 10% | 
COCCc1ccc(OCC(O)CNC(C)C)cc1 (centres unmarked) [metoprolol, 1-(Isopropylamino)-3-[4-(2-methoxyethyl)-phenoxy]-propan-2-ol] |  |  |  |  |  |  | 3 to 4 h
COc1ccccc1OCCNCC(O)COc1cccc2[nH]c3ccccc3c12 (racemic) [carvedilol, (±)-[3-(9H-carbazol-4-yloxy)-2-hydroxypropyl][2-(2-methoxyphenoxy)ethyl]amine] |  |  |  |  |  |  | 7 to 10 h
